Measurements reported in US5506213A, “Adminstration of 2'-halo-2'-deoxy adenosine to treat inflammatory bowel disease” (priority 1994, dated 1996).

Columns and labels:
[1] = tested on: Adenocarcinoma 755 (Ad755); details: cited from earlier work
[2] = tested on: adenosine deaminase; details: cited from earlier work
[3] = tested on: delayed-type hypersensitivity (DTH) reaction; test: Delayed-type hypersensitivity to ovalbumin in guinea pigs, different dosages of CdA; assay type: in vivo, guinea pig; details: dexamethasone 5 mg/kg; 24 and 48 hours post-challenge; p<0.01
Experimental: (§1) Delayed-type hypersensitivity (DTH) is a cell-mediated immune response that typically takes longer than 12 hours to develop. In the guinea pig, a DTH reaction to an antigen can be established by first immunizing the animal with the antigen in an adjuvant such as Freund's complete adjuvant. Subsequent intradermal injection of the antigen causes no change for at least 10 hours, after which there is a gradual increase in erythema and swelling in response to antigen injection. This response peaks about at about 24 hours after challenge, then gradually subsides.
In another study, the effects of different dosages of CdA on the DTH reaction were examined. Guinea pigs sensitized to ovalbumin were treated with saline (control), dexamethasone (5 mg/kg), and CdA at 1 mg/kg or 0.1 mg/kg. Three days after treatment, the animals were challenged with ovalbumin intradermally. The areas of the skin lesions were measured at 6, 24, and 48 hours after challenge.

[4] = tested on: delayed-type hypersensitivity (DTH) response; test: Delayed-type hypersensitivity to ovalbumin in guinea pigs, oral and intraperitoneal treatment; assay type: in vivo, guinea pig; details: dexamethasone 5 mg/kg, CdA or CAFdA 1 mg/kg, 24 and 48 hours, p<0.01
Experimental: as §1
Histologically, the inflammatory response is characterized by intense inundation of the site with mononuclear cells, of which about half are lymphocytes and the other half monocytes. DTH is therefore an indicator of a monocyte-mediated immune reaction.
In one study, guinea pigs were sensitized to ovalbumin in adjuvant. The animals were then treated either orally or intraperitoneally with saline (control), dexamethasone (5 mg/kg), CdA (1 mg/kg) or CAFdA (1 mg/kg). The animals were then injected with ovalbumin intradermally to elicit the DTH response. The mean area of the swelling size was measured for each animal (nine or ten animals were treated for each protocol).

[5] = tested on: antigen-induced arthritis; test: Antigen-induced arthritis in rabbits; assay type: in vivo; details: CdA 1 mg/kg, tepoxalin 25 mg/kg, naproxen 5 mg/kg
Experimental: Antigen-induced arthritis in rabbits is an animal model of rheumatoid arthritis. In this model, the rabbits are sensitized to an antigen such as ovalbumin or methylated bovine serum albumin in an adjuvant. Several weeks later, the same antigen is injected directly into the joints of the animal. […] Pettipher et al., Br. J. Exp. Path., 69:113-122 (1988).
Rabbits with antigen-induced arthritis were treated with CdA (1 mg/kg), tepoxalin (25 mg/kg) or naproxen (5 mg/kg).

[6] = tested on: DHL9, wild type; test: Direct comparative cytotoxicity assay (Table II), DHL9 wild type; assay type: cell-based, human; details: DHL9, wild type
Excerpt: (§2) The two compounds, CdA and CAFdA, were also compared for in vitro activity against another group of human cell lines in a direct comparative assay.
(§3) ^1 Concentration that produced 50 percent reduction in all numbers
(§4) ^2 CEM cells are T lymphoblasts; DHL9 cells are lymphoblasts.

[7] = tested on: monocyte-like cell line U937; test: cells; details: Homo sapiens, U-937
Experimental: (§5) Seven different cell lines were treated with varying concentrations of 2-chloro-9,1'-beta-2'-deoxy-2'-fluoro-D-arabinofuranosyladenine (CAFdA) to determine percent viability. CAFdA concentrations ranging from 0 to about 260 nM were used to treat each cell line in vitro.

[8] = tested on: DHL9, Increased ribonucleotide reduction; test: Direct comparative cytotoxicity assay (Table II), DHL9 increased ribonucleotide reduction; assay type: cell-based, human; details: DHL9, Increased ribonucleotide reduction
Excerpt: as §2, §3, §4

[9] = tested on: monocyte-like cell line HL-60; test: cells; details: Homo sapiens
Experimental: as §5

[10] = tested on: Peripheral blood lymphocytes; test: Direct comparative cytotoxicity assay (Table II), peripheral blood lymphocytes; assay type: cell-based, human; details: Peripheral blood lymphocytes
Excerpt: as §2, §3

[11] = tested on: monocyte-like cell line THP-1; test: cells; details: Homo sapiens
Experimental: as §5

[12] = tested on: monocytes; test: Direct comparative cytotoxicity assay (Table II), monocytes; assay type: cell-based, human; details: Monocytes
Excerpt: as §2, §3

[13] = tested on: CEM, wild type; test: Direct comparative cytotoxicity assay (Table II), CEM wild type; assay type: cell-based, human; details: CEM, wild type
Excerpt: as §2, §3, §4

[14] = tested on: T cell line Molt-4; test: cells; details: Homo sapiens
Experimental: as §5

[15] = tested on: CEM, Increased 5'-nucleoside; test: Direct comparative cytotoxicity assay (Table II), CEM increased 5'-nucleoside; assay type: cell-based, human; details: CEM, Increased 5'-nucleoside
Excerpt: as §2, §3, §4

[16] = tested on: T cell line CEM; test: cells; details: Homo sapiens
Experimental: as §5

[17] = pH value of 1 at 37 degrees C.; cited from earlier work
[18] = tested on: HIV; test: Inhibition of p24 (gag) production of HIV from MDM cells, 3-day assay; assay type: cell-based; details: 0.1-100 μM
[19] = tested on: HIV; details: cited from earlier work
[20] = tested on: HIV; details: cultured human T lymphoblasts; cited from earlier work
[21] = Homo sapiens, 120 h, read-out: ID50: concentration that produced 50 percent reduction in all numbers after five days

SMILES: Nc1nc(F)nc2c1ncn2[C@@H]1O[C@H](CO)[C@@H](O)[C@H]1O [2-fluoroadenosine]
- tolerated dose ([1]; C57 black mice implanted with Ad755): about 1 milligram per kilogram of body weight
- antitumor activity at the tolerated level ([1]; against Ad755 as well as leukemia L1210 and the Erlich ascites tumor): inactive
- substrate behaviour toward adenosine deaminase [2]: negligible activity

SMILES: C[C@@H]1C[C@H]2[C@@H]3CCC4=CC(=O)C=C[C@]4(C)[C@@]3(F)[C@@H](O)C[C@]2(C)[C@@]1(O)C(=O)CO [dexamethasone, reference compound]
- swelling compared to control saline treated animals [3]: effective at inhibiting swelling
- swelling after ovalbumin challenge compared to saline control ([4]; intraperitoneal): significant inhibition of swelling
- swelling after ovalbumin challenge compared to saline control ([4]; oral): significant inhibition of swelling

SMILES: COc1ccc2cc([C@H](C)C(=O)O)ccc2c1 [Naproxen, naproxen, reference compound]
- pathological examination of joints compared to untreated controls [5]: appeared to exacerbate the inflammation and tissue destruction

SMILES: Nc1nc(Cl)nc2c1ncn2[C@@H]1O[C@H](CO)[C@@H](O)[C@@H]1F [CAFdA, 2-chloro-9,1'-beta-2'-deoxy-2'-fluoro-D-arabinofuranosyladenine]
- ID50 ratio CAFdA / CdA [6]: 1.9
- IC50 [6, 21]: 150 nM
- viability at 0.06 µM [7]: < 20%
- viability at 0.13 µM [7]: < 10%
- ID50 ratio CAFdA / CdA [8]: 15.
- IC50 [8, 21]: 6000 nM
- viability at 0.05 µM [9]: ≤ 60%
- viability at 0.06 µM [9]: < 20%
- viability at 0.13 µM [9]: < 10%
- IC50 ([10]; Homo sapiens, Lymphocyte, 120 h, read-out: ID50: concentration that produced 50 percent reduction in all numbers after five days): 18 nM
- ID50 ratio CAFdA / CdA [10]: 1.9
- viability at 0.05 µM [11]: ≤ 60%
- viability at 0.06 µM [11]: < 20%
- viability at 0.13 µM [11]: < 10%
- IC50 ([12]; Homo sapiens, Monocyte, 120 h, read-out: ID50: concentration that produced 50 percent reduction in all numbers after five days): 47 nM
- ID50 ratio CAFdA / CdA [12]: 2.1
- ID50 ratio CAFdA / CdA [13]: 3.1
- IC50 [13, 21]: 67 nM
- viability at 0.06 µM [14]: < 20%
- viability at 0.13 µM [14]: < 10%
- ID50 ratio CAFdA / CdA [15]: 2.1
- swelling after ovalbumin challenge compared to saline control ([4]; intraperitoneal): significant inhibition of swelling
- swelling after ovalbumin challenge compared to saline control ([4]; oral): significant inhibition of swelling
- viability at 0.05 µM [16]: ≤ 60%
- viability at 0.06 µM [16]: < 20%
- viability at 0.13 µM [16]: < 10%

SMILES: Nc1ncnc2c1ncn2[C@H]1CC[C@@H](CO)O1 [ddA, 2',3'-dideoxyadenosine]
- substrate behaviour toward adenosine deaminase [2]: known substrate for adenosine deaminase
- half-time [17]: 35 s
- inhibition of p24 (gag) production [18]: none of those compounds provided any inhibition

SMILES: Cc1cn([C@H]2C[C@H](N=[N+]=[N-])[C@@H](CO)O2)c(=O)[nH]c1=O [AZT, 3'-azido-3'-deoxythymidine]
- virus isolation rates from peripheral blood cells ([19]; clinical trials with AZT): no effect
- CD4 (T4) peripheral blood cell counts ([19]; patients with AIDS or AIDS-related complex): elevation of CD4 (T4) peripheral blood cell counts
- tolerability ([19]; patients with AIDS or AIDS-related disease complexes): well tolerated
- inhibition of p24 (gag) production [18]: none of those compounds provided any inhibition
- replication of HIV [20]: blocked the replication of HIV
